Patent US20230117034A1, “PYRAZOLOTRIAZINES” (Bayer Aktiengesellschaft, priority 2019, published 2023)

Assays:
CDK2/CycE = target: T1, CDK2/CycE (Homo sapiens, UniProt P24941); test: CDK2/CycE kinase assay (TR-FRET, 2 mM ATP); assay type: biochemical; details: 2 mM ATP (high ATP); median; read-out: CDK2/CyclinE, 2 mM ATP (high ATP), IC50 (median)
T1 construct: purchased ProQinase GmbH (Freiburg, Germany); host or cells: insect cells (Sf9)
Method in brief: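 GST-tagged human CDK2 and CycE from Sf9 cells, about 10 ng/ml, pre-incubated 15 min at 22 °C with compound in Tris/HCl pH 8.0 buffer. Reaction with 2 mM ATP and 0.75 µM biotinylated peptide for 25 min at 22 °C. Phospho-RB antibody TR-FRET (665/620 nm ratio) read after 1 h; data normalised to no-inhibitor and no-enzyme controls.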

[1] = target: T2, CDK12 (nuclear staining in CAL-120 cells) (Homo sapiens, UniProt Q9NYV4); test: CDK12 nuclear protein level: immunofluorescence/high content analysis (CAL-120); assay type: cell-based; details: for DC50: CAL-120 cells, 24 h, immunofluorescence, 50% reduction of nuclear CDK12 staining intensity, median, read-out: CDK12 degradation IF, DC50- [mol/l] (median); for (IC50 CDK12 high ATP) to (Degradation DC50 CDK12) ratio: ratio of IC50 CDK12 high ATP kinase assay to DC50 CDK12 degradation (IF, CAL-120)
T2 construct: endogenous in cells; host or cells: CAL-120 human breast cancer cells (DSMZ ACC 459)
Method in brief: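 CAL-120 cells were treated with compound for 24 h at 37 °C, fixed with PFA and immunostained for CDK12. Nuclear CDK12 intensity was quantified by automated image analysis and normalized to DMSO and control. DC50 is the concentration giving 50% reduction of nuclear staining.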

T2 sequence (Q9NYV4 whole entry): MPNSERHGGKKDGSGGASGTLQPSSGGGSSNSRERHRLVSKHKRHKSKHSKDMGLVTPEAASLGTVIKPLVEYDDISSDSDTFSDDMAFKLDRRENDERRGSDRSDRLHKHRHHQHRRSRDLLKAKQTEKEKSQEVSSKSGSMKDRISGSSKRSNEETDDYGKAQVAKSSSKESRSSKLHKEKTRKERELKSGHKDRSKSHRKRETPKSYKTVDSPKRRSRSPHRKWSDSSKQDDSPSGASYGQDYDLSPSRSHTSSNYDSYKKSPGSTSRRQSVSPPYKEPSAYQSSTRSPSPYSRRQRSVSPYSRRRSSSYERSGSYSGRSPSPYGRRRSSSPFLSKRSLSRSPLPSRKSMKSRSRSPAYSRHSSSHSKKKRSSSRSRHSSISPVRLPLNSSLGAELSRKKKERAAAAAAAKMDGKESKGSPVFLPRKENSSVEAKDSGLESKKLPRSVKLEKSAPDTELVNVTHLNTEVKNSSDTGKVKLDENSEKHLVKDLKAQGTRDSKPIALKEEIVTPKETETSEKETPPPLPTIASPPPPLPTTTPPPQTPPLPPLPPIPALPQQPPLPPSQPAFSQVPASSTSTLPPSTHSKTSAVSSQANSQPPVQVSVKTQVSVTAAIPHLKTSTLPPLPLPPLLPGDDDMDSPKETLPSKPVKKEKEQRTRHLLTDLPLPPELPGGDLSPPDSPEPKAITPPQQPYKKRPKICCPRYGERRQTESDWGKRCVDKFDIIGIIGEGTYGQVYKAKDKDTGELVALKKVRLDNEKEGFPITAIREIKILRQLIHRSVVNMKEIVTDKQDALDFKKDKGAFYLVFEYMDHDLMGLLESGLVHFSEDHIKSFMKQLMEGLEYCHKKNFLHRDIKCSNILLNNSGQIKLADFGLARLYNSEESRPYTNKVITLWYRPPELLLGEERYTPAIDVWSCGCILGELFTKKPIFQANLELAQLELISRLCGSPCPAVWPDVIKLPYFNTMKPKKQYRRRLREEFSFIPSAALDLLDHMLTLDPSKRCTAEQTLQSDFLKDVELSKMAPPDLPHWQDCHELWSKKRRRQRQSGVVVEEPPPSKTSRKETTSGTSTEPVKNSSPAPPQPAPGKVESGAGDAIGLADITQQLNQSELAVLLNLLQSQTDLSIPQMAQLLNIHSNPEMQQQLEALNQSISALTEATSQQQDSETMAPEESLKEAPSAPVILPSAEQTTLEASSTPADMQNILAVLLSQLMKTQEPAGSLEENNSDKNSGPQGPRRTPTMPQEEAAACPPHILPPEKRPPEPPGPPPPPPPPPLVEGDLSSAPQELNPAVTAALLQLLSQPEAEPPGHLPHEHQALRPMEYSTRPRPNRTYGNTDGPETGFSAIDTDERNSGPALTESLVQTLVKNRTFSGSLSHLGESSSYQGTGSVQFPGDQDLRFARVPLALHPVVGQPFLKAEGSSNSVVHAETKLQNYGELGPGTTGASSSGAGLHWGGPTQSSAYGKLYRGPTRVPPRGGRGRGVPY
T2 sequence (O75909 whole entry partner): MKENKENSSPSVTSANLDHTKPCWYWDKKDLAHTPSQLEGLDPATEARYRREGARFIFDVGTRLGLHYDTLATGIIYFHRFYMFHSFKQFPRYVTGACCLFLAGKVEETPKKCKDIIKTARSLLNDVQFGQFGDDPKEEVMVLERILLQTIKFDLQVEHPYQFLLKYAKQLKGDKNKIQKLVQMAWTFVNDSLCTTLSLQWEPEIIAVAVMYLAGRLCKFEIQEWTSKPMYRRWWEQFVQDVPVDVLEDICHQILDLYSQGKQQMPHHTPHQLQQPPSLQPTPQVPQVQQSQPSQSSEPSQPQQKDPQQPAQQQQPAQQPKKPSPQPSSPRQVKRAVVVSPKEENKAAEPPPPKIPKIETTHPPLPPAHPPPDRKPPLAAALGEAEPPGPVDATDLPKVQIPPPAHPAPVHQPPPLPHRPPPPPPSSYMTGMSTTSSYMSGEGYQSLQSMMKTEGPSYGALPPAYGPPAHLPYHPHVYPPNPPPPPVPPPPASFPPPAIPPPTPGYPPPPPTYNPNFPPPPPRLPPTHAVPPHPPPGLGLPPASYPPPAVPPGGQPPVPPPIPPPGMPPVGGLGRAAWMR

Row | IC50 (CDK2/CycE) [µM] | DC50 [1] [nM] | (IC50 CDK12 high ATP) to (Degradation DC50 CDK12) ratio [1] | SMILES
1 | > 20 | 4.48 | 1071 | COc1cccc2[nH]c(CNc3nc(N4CCOCC4)nc4c(CC(F)(F)F)cnn34)nc12 [Example 277, N-[(4-methoxy-1H-benzimidazol-2-yl)methyl]-2-(morpholin-4-yl)-8-(2,2,2-trifluoroethyl)pyrazolo[1,5-a][1,3,5]triazin-4-amine]
2 | > 12.9 | 0.881 | 64 | Fc1cccc2[nH]c(CNc3nc(N4CCOCC4)nc4c(C(F)(F)F)cnn34)nc12 [Example 274, N-[(4-fluoro-1H-benzimidazol-2-yl)methyl]-2-(morpholin-4-yl)-8-(trifluoromethyl)pyrazolo[1,5-a][1,3,5]triazin-4-amine]
3 | > 20 | – | 557 | FC(F)(F)Cc1cnn2c(NCc3nc4cc(Cl)c(Cl)cc4[nH]3)nc(N3CCOCC3)nc12 [Example 302, N-[(5,6-dichloro-1H-benzimidazol-2-yl)methyl]-2-(morpholin-4-yl)-8-(2,2,2-trifluoroethyl)pyrazolo[1,5-a][1,3,5]triazin-4-amine]
4 | 10.7 | 5.47 | 179 | CN(CC(C)(C)O)c1nc(NCc2nc3cc(F)c(Cl)cc3[nH]2)n2ncc(C3CC3)c2n1 [Example 317, 1-[(4-{[(6-chloro-5-fluoro-1H-benzimidazol-2-yl)methyl]amino}-8-cyclopropylpyrazolo[1,5-a][1,3,5]triazin-2-yl)(methyl)amino]-2-methylpropan-2-ol]
5 | > 20 | 1.38 | 10678 | c1ccc2[nH]c(CNc3nc(N4CCNCC4)nc4c(C5CC5)cnn34)nc2c1 [Example 247, N-[(1H-benzimidazol-2-yl)methyl]-8-cyclopropyl-2-(piperazin-1-yl)pyrazolo[1,5-a][1,3,5]triazin-4-amine]
6 | 16.1 | 3 | 39 | COc1ccc2[nH]c(CNc3nc(N4CCOCC4)nc4c(C(F)(F)F)cnn34)nc2c1 [Example 257, N-[(5-methoxy-1H-benzimidazol-2-yl)methyl]-2-(morpholin-4-yl)-8-(trifluoromethyl)pyrazolo[1,5-a][1,3,5]triazin-4-amine]
7 | 7.21 | 21.5 | >920 | CC1(N)CCN(c2nc(NCc3nc4ccccc4[nH]3)n3ncc(Br)c3n2)CC1 [Example 290, 2-(4-amino-4-methylpiperidin-1-yl)-N-[(1H-benzimidazol-2-yl)methyl]-8-bromopyrazolo[1,5-a][1,3,5]triazin-4-amine]
8 | > 20 | 4.72 | 2961 | FC1(F)CC1c1cnn2c(NCc3nc4ccccc4[nH]3)nc(N3CCOCC3)nc12 (centres unmarked) [Example 279, N-[(1H-benzimidazol-2-yl)methyl]-8-(2,2-difluorocyclopropyl)-2-(morpholin-4-yl)pyrazolo[1,5-a][1,3,5]triazin-4-amine]
9 | > 20 | 3.51 | 387 | Fc1cc2nc(CNc3nc(N4CCOCC4)nc4c(C5CC5)cnn34)[nH]c2cc1F [Example 318, 8-cyclopropyl-N-[(5,6-difluoro-1H-benzimidazol-2-yl)methyl]-2-(morpholin-4-yl)pyrazolo[1,5-a][1,3,5]triazin-4-amine]
10 | > 20 | 7.77 | 822 | FC(F)(F)Cc1cnn2c(NCc3nc4cc(Cl)ccc4[nH]3)nc(N3CCOCC3)nc12 [Example 299, N-[(5-chloro-1H-benzimidazol-2-yl)methyl]-2-(morpholin-4-yl)-8-(2,2,2-trifluoroethyl)pyrazolo[1,5-a][1,3,5]triazin-4-amine]
11 | 11.4 | 10.9 | 1056 | Brc1cnn2c(NCc3nc4cccnc4[nH]3)nc(N3CCNCC3)nc12.O=CO [Example 19, 8-bromo-N-[(3H-imidazo[4,5-b]pyridin-2-yl)methyl]-2-(piperazin-1-yl)pyrazolo[1,5-a][1,3,5]triazin-4-amine formic acid salt]
12 | > 20 | 1.7 | 57 | FC(F)(F)c1cnn2c(NCc3nc4cc(Cl)ccc4[nH]3)nc(N3CCOCC3)nc12 [Example 275, N-[(5-chloro-1H-benzimidazol-2-yl)methyl]-2-(morpholin-4-yl)-8-(trifluoromethyl)pyrazolo[1,5-a][1,3,5]triazin-4-amine]
13 | 1.41 | 3.45 | 452 | Brc1cnn2c(NCc3ncc(-c4ccccc4)[nH]3)nc(N3CCOCC3)nc12 [Example 23, 8-bromo-2-(morpholin-4-yl)-N-[(5-phenyl-1H-imidazol-2-yl)methyl]pyrazolo[1,5-a][1,3,5]triazin-4-amine]
14 | 4.84 | 3.33 | 2588 | Brc1cnn2c(NCc3nc4ccccc4[nH]3)nc(N3C[C@H]4C[C@@H]3CN4)nc12 [Example 269, N-[(1H-benzimidazol-2-yl)methyl]-8-bromo-2-[(1R,4R)-2,5-diazabicyclo[2.2.1]heptan-2-yl]pyrazolo[1,5-a][1,3,5]triazin-4-amine]
15 | > 20 | 3.55 | 627 | Fc1ccc2[nH]c(CNc3nc(N4CCOCC4)nc4c(C5CCC5)cnn34)nc2c1F [Example 264, 8-cyclobutyl-N-[(4,5-difluoro-1H-benzimidazol-2-yl)methyl]-2-(morpholin-4-yl)pyrazolo[1,5-a][1,3,5]triazin-4-amine]
16 | > 20 | 8.26 | 190 | Fc1cc2nc(CNc3nc(N4CCOCC4)nc4c(C5CC5)cnn34)[nH]c2cc1Cl [Example 307, N-[(6-chloro-5-fluoro-1H-benzimidazol-2-yl)methyl]-8-cyclopropyl-2-(morpholin-4-yl)pyrazolo[1,5-a][1,3,5]triazin-4-amine]
17 | 5 | 1.49 | >10636 | N[C@H]1CCN(c2nc(NCc3nc4ccccc4[nH]3)n3ncc(Br)c3n2)C1 [Example 245, 2-[(3S)-3-aminopyrrolidin-1-yl]-N-[(1H-benzimidazol-2-yl)methyl]-8-bromopyrazolo[1,5-a][1,3,5]triazin-4-amine]
18 | 7.62 | 6.97 | 2630 | Brc1cnn2c(NCc3nc4ccccc4[nH]3)nc(N3C[C@H]4CNC[C@H]4C3)nc12 [Example 283, N-[(1H-benzimidazol-2-yl)methyl]-8-bromo-2-[(3aR,6aS)-hexahydropyrrolo[3,4-c]pyrrol-2(1H)-yl]pyrazolo[1,5-a][1,3,5]triazin-4-amine]
19 | > 20 | 5.38 | 2107 | Fc1ccc2[nH]c(CNc3nc(N4CCOCC4)nc4c(C5CC5(F)F)cnn34)nc2c1 (racemic) [Example 286, 8-[(1RS)-2,2-difluorocyclopropyl]-N-[(5-fluoro-1H-benzimidazol-2-yl)methyl]-2-(morpholin-4-yl)pyrazolo[1,5-a][1,3,5]triazin-4-amine]
20 | > 20 | 4.93 | 1297 | Fc1ccc2[nH]c(CNc3nc(N4CCOCC4)nc4c(CC(F)(F)F)cnn34)nc2c1 [Example 308, N-[(5-fluoro-1H-benzimidazol-2-yl)methyl]-2-(morpholin-4-yl)-8-(2,2,2-trifluoroethyl)pyrazolo[1,5-a][1,3,5]triazin-4-amine]
21 | 3.28 | 40.3 | >419 | C[C@@]1(O)CCN(c2nc(NCc3nc4ccccc4[nH]3)n3ncc(Br)c3n2)C1 (single isomer, unassigned) [Example 281, (3R or S)-1-(4-{[(1H-benzimidazol-2-yl)methyl]amino}-8-bromopyrazolo[1,5-a][1,3,5]triazin-2-yl)-3-methylpyrrolidin-3-ol]
22 | 4.56 | 0.674 | 1084 | Fc1ccc2[nH]c(CNc3nc(N4CCOCC4)nc4c(Br)cnn34)nc2c1F [Example 25, 8-bromo-N-[(4,5-difluoro-1H-benzimidazol-2-yl)methyl]-2-(morpholin-4-yl)pyrazolo[1,5-a][1,3,5]triazin-4-amine]

Row | SMILES | IC50 (CDK2/CycE) [µM] | DC50 [1] [nM] | (IC50 CDK12 high ATP) to (Degradation DC50 CDK12) ratio [1]
23 | N[C@@H]1[C@@H]2C[C@H]1CN(c1nc(NCc3nc4ccccc4[nH]3)n3ncc(Br)c3n1)C2 [Example 289, 2-[(1R,5S,6s)-6-amino-3-azabicyclo[3.1.1]heptan-3-yl]-N-[(1H-benzimidazol-2-yl)methyl]-8-bromopyrazolo[1,5-a][1,3,5]triazin-4-amine] | 5.29 | 3.13 | 2240
24 | N[C@H]1[C@@H]2C[C@H]1CN(c1nc(NCc3nc4ccccc4[nH]3)n3ncc(Br)c3n1)C2 [Example 288, 2-[(1R,5S,6r)-6-amino-3-azabicyclo[3.1.1]heptan-3-yl]-N-[(1H-benzimidazol-2-yl)methyl]-8-bromopyrazolo[1,5-a][1,3,5]triazin-4-amine] | 2.64 | 1.16 | 2920
